Source: the supplement of paper PMC13380429

Experiments:
Settings in all cases: 72 h
Caco-2 [1] = test: cell viability relative to DMSO; higher = less toxic
Calu-3 [2] = test: as above
Vero E6 [3] = test: as above
U2OS [4] = test: as above
Caco-2 [5] = test: relative viability EC50 (midpoint between 100% and the lowest measured viability); higher = less toxic
Calu-3 [6] = test: as above
Vero E6 [7] = test: as above
U2OS [8] = test: as above
Caco-2 [9] = test: drug sensitivity score (DSS) for viability; higher = more toxic; extreme values may be limits of the assay
Calu-3 [10] = test: as above
Vero E6 [11] = test: as above
U2OS [12] = test: as above
HepG2 [13] = test: cell viability relative to DMSO; higher = less toxic
HepG2 [14] = test: drug sensitivity score (DSS) for viability; higher = more toxic; extreme values may be limits of the assay
HepG2 [15] = test: relative viability EC50 (midpoint between 100% and the lowest measured viability); higher = less toxic

SMILES | cell viability (Caco-2 [1]; 1 nM) [%] | cell viability (Caco-2 [1]; 10 nM) [%] | cell viability (Caco-2 [1]; 100 nM) [%] | cell viability (Caco-2 [1]; 1000 nM) [%] | cell viability (Caco-2 [1]; 10000 nM) [%] | cell viability (Calu-3 [2]; 1 nM) [%] | cell viability (Calu-3 [2]; 10 nM) [%] | cell viability (Calu-3 [2]; 100 nM) [%] | cell viability (Calu-3 [2]; 1000 nM) [%] | cell viability (Calu-3 [2]; 10000 nM) [%] | cell viability (Vero E6 [3]; 1 nM) [%] | cell viability (Vero E6 [3]; 10 nM) [%] | cell viability (Vero E6 [3]; 100 nM) [%] | cell viability (Vero E6 [3]; 1000 nM) [%] | cell viability (Vero E6 [3]; 10000 nM) [%] | cell viability (U2OS [4]; 1 nM) [%] | cell viability (U2OS [4]; 10 nM) [%] | cell viability (U2OS [4]; 100 nM) [%] | cell viability (U2OS [4]; 1000 nM) [%] | cell viability (U2OS [4]; 10000 nM) [%] | relative viability EC50 (Caco-2 [5]) [µM] | relative viability EC50 (Calu-3 [6]) [µM] | relative viability EC50 (Vero E6 [7]) [µM] | relative viability EC50 (U2OS [8]) [µM] | drug sensitivity score (Caco-2 [9]) | drug sensitivity score (Calu-3 [10]) | drug sensitivity score (Vero E6 [11]) | drug sensitivity score (U2OS [12]) | cell viability (HepG2 [13]; 1 nM) [%] | cell viability (HepG2 [13]; 10 nM) [%] | cell viability (HepG2 [13]; 100 nM) [%] | cell viability (HepG2 [13]; 1000 nM) [%] | cell viability (HepG2 [13]; 10000 nM) [%] | drug sensitivity score (HepG2 [14]) | relative viability EC50 (HepG2 [15]) [µM]
COc1ccc(-c2cc(=S)ss2)cc1 [anethole-trithione] | 99.3 | 96.5 | 100 | 91.9 | 92.2 | 97.1 | 95.9 | 111 | 108 | 97.3 | 107 | 105 | 95.9 | 102 | 106 | 100 | 98.9 | 99.8 | 97.6 | 103 | > 10 | > 10 | > 10 | > 10 | 0 | 0 | 0 | 0 | – | – | – | – | – | – | –
O=C1Nc2ccccc2C2(CCN(CCc3ccc(C(F)(F)F)cc3)CC2)O1 | 93.3 | 97.2 | 94.7 | 99.2 | 78.6 | 99.7 | 98.7 | 102 | 108 | 82.4 | 95.6 | 99 | 97.2 | 96.3 | 93.5 | 100 | 94.9 | 99.8 | 94.7 | 91.2 | > 10 | > 10 | > 10 | > 10 | 0.8 | 0.2 | 0 | 0 | 97.7 | 96.2 | 88.8 | 100 | 58.1 | 2.1 | –
COc1ccc(C(=O)c2ccccc2)c(O)c1 [oxybenzone] | 99.6 | 94.4 | 98.9 | 101 | 97.8 | – | – | – | – | – | – | – | – | – | – | 103 | 103 | 101 | 98.2 | 100 | > 10 | – | – | > 10 | 0 | – | – | 0 | 112 | 112 | 98.9 | 114 | 103 | 0 | > 10
Cc1ccc(S(=O)(=O)NC(=O)NN2CCCCCC2)cc1 [tolazamide] | 95.6 | 95 | 102 | 93.8 | 89.7 | 92.2 | 96.2 | 88 | 79.5 | 93.3 | 98.9 | 86.3 | 95.5 | 98.3 | 107 | 100 | 97 | 97 | 99.2 | 103 | > 10 | > 10 | > 10 | > 10 | 0 | 0 | 0 | 0 | – | – | – | – | – | – | –
O=c1ncn2nc(Sc3ccc(F)cc3F)ccc2c1-c1c(Cl)cccc1Cl [VX-745] | 107 | 96.5 | 104 | 99.7 | 82.6 | 97.1 | 107 | 98.7 | 82.9 | 95 | 106 | 105 | 95.8 | 86.1 | 86.1 | 102 | 108 | 98.4 | 94.9 | 87.9 | > 10 | > 10 | > 10 | > 10 | 0.4 | 2.1 | 1.4 | 0.1 | – | – | – | – | – | – | –
O=C(NN1C(=O)[C@@H]2[C@@H]3C=C[C@@H]([C@H]4C[C@@H]34)[C@@H]2C1=O)c1ccc(C(F)(F)F)cc1 [tecovirimat] | 109 | 104 | 105 | 101 | 94.2 | 99.7 | 90.3 | 103 | 98.8 | 100 | 98.5 | 104 | 93 | 95.3 | 101 | 107 | 107 | 107 | 99.6 | 104 | > 10 | > 10 | > 10 | > 10 | 0 | 0 | 0 | 0 | – | – | – | – | – | – | –
Cc1ccc2c(=O)c3cccc(CC(=O)O)c3oc2c1C [ASA-404] | 94.6 | 98.6 | 99 | 96 | 93.3 | 98 | 86.7 | 105 | 99.4 | 102 | 102 | 106 | 102 | 108 | 97.6 | 100 | 97.4 | 101 | 99.7 | 103 | > 10 | > 10 | > 10 | > 10 | 0 | 0 | 0 | 0 | – | – | – | – | – | – | –
O=C(Nc1cccnc1)c1cc(-c2ccnc(F)c2)ccc1OCc1ccccc1 | 107 | 110 | 94.8 | 92 | 86.6 | 94.2 | 102 | 96.5 | 102 | 104 | 99.3 | 101 | 97.8 | 98 | 95.2 | 95.6 | 100 | 95.1 | 96.3 | 97.3 | > 10 | > 10 | > 10 | > 10 | 0.4 | 0 | 0 | 0 | – | – | – | – | – | – | –
N#C/C(=C\c1ccc(O)cc1)C(=O)O [CHC] | 108 | 98.5 | 102 | 87.6 | 102 | – | – | – | – | – | – | – | – | – | – | 101 | 93.4 | 97.6 | 98.6 | 99.7 | > 10 | – | – | > 10 | 0 | – | – | 0 | 106 | 99 | 102 | 98 | 98.8 | 0 | > 10
COC(=O)[C@H](CC(C)C)NC(=O)[C@@H](N)CC(C)C [leucylleucine-methyl-ester] | 98.1 | 102 | 94.5 | 104 | 103 | 98.1 | 107 | 86.9 | 99.6 | 98.5 | – | – | – | – | – | – | – | – | – | – | > 10 | > 10 | – | – | 0 | 0 | – | – | – | – | – | – | – | – | –
NC(=O)c1nc(Nc2ccccc2)sc1NC(=O)C1CCCCC1 [UNC3230] | 98.6 | 97.8 | 98 | 89.2 | 75.1 | 86.3 | 84.9 | 90.8 | 79 | 69.7 | 99.1 | 92.6 | 98.1 | 99 | 70.8 | 102 | 96.9 | 97.5 | 93.8 | 88.8 | > 10 | – | – | > 10 | 1.9 | 5.6 | 1.4 | 0 | 96.6 | 104 | 88.1 | 104 | 88.5 | 0 | > 10
CCC1(c2ccc(N)cc2)CCC(=O)NC1=O (stereo unspecified) [aminoglutethimide] | 109 | 97.2 | 105 | 112 | 111 | 112 | 95.6 | 103 | 93.2 | 102 | 97.6 | 101 | 91.3 | 86.9 | 100 | 102 | 105 | 105 | 101 | 98.6 | > 10 | > 10 | > 10 | > 10 | 0 | 0 | 0 | 0 | 90.7 | 96 | 85.3 | 77.2 | 71.8 | 4.8 | –
Fc1cccc(/C=N/N=C/c2cccc(F)c2)c1 [DFB] | 99.5 | 110 | 100 | 102 | 101 | 115 | 111 | 98.8 | 105 | 104 | 99.9 | 98.7 | 90 | 97.3 | 98.6 | – | – | – | – | – | > 10 | > 10 | > 10 | – | 0 | 0 | 0 | – | – | – | – | – | – | – | –
Cc1cc(C)c(Nc2ccnc(Nc3ccc(C#N)cc3)n2)c(C)c1 [dapivirine] | 104 | 94.5 | 99.3 | 86 | 47.8 | 108 | 100 | 97.1 | 100 | 74.4 | 93.7 | 101 | 92.9 | 94.7 | 61.5 | 97.7 | 100 | 101 | 99 | 40.3 | 1.49 | – | – | 3.05 | 4.9 | 1 | 2.8 | 3.4 | 107 | 120 | 95.4 | 103 | 17.3 | 4.3 | 3.38
C/C(=C\C(N)C(=O)O)CP(=O)(O)O (stereo unspecified) | 102 | 110 | 97.5 | 90 | 101 | 95.9 | 98.3 | 104 | 96.2 | 101 | – | – | – | – | – | 101 | 96.3 | 97 | 97.1 | 104 | > 10 | > 10 | – | > 10 | 0 | 0 | – | 0 | – | – | – | – | – | – | –
CCOc1ccc2nc(SCCN3CCOCC3)[nH]c2c1 [afobazole] | 102 | 110 | 104 | 99.5 | 102 | 95.5 | 97.8 | 84.4 | 101 | 99.8 | – | – | – | – | – | – | – | – | – | – | > 10 | > 10 | – | – | 0 | 0 | – | – | 112 | 101 | 107 | 99.5 | 103 | 0 | > 10
Nc1sc2c(c1C(=O)c1ccc(Cl)cc1)CCCC2 [T-62] | 93.7 | 99.3 | 88.8 | 92.4 | 90.8 | – | – | – | – | – | – | – | – | – | – | 98.5 | 101 | 100 | 101 | 98 | > 10 | – | – | > 10 | 0 | – | – | 0 | 105 | 98 | 103 | 101 | 107 | 0 | > 10
C[C@]12CC[C@H](O)C[C@H]1CC[C@@H]1[C@@H]2CC[C@]2(C)[C@@H](c3ccc(=O)oc3)C[C@H]3O[C@]132 [resibufogenin] | 96.3 | 98.8 | 106 | 94.7 | 25.1 | 102 | 94.8 | 106 | 99.4 | 45.7 | 106 | 101 | 102 | 11.3 | 2.1 | 97 | 104 | 98.9 | 101 | 6.5 | 2.59 | 3.09 | 0.426 | 3.23 | 4.9 | 3 | 16 | 5.1 | 115 | 100 | 109 | 90.5 | 63.6 | 3.2 | –
